# Results reported in patent publication US20090074824A1, “STABLE NANOCAPSULE SYSTEMS FOR THE ADMINISTRATION OF ACTIVE MOLECULES” (priority 2006, published 2009).
# Assay: physchem
smiles,measurement,value
"CCCCC(=O)O[C@]1(C(=O)CO)[C@@H](C)C[C@H]2[C@@H]3CCC4=CC(=O)C=C[C@]4(C)[C@@]3(F)[C@@H](O)C[C@@]21C [betamethasone valerate, Betamethasone valerate]",solubility,5 µg/mL
